Measurements from ChEMBL document CHEMBL1240341 (Leukemia, 2009).

Legend:
[1] = target: Mitogen-activated protein kinase kinase kinase kinase 5 (Homo sapiens, UniProt Q9Y4K4); experiment: Inhibition of MAP4K5
[2] = target: Tyrosine-protein kinase ABL2 (Homo sapiens, UniProt P42684); experiment: Inhibition of ABL2
[3] = target: Tyrosine-protein kinase Fgr (Homo sapiens, UniProt P09769); experiment: Inhibition of FGR
[4] = target: Tyrosine-protein kinase FRK (Homo sapiens, UniProt P42685); experiment: Inhibition of FRK
Tyrosine-protein kinase FRK, sequence (P42685 whole entry): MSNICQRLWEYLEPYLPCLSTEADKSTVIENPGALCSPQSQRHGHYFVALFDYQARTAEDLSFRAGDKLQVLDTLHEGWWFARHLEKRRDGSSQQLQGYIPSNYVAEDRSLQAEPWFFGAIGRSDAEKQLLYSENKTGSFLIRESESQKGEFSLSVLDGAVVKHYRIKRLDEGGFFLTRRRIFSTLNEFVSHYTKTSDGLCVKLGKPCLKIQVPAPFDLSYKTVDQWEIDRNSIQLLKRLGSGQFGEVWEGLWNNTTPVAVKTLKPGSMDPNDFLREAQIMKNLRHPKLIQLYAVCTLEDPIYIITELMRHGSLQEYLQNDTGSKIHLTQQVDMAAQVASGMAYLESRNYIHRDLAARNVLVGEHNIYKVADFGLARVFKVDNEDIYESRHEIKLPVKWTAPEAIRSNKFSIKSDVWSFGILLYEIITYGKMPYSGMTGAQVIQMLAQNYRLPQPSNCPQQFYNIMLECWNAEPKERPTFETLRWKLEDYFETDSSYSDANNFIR

[5] = target: Tyrosine-protein kinase BTK (Homo sapiens, UniProt Q06187); experiment: Inhibition of BTK
Activated CDC42 kinase 1 = Activated CDC42 kinase 1 (Homo sapiens, UniProt Q07912); experiment: Inhibition of TNK2
[6] = target: Tyrosine-protein kinase HCK (Homo sapiens, UniProt P08631); experiment: Inhibition of HCK
[7] = target: Serine/threonine-protein kinase 24 (Homo sapiens, UniProt Q9Y6E0); experiment: Inhibition of STK24
Serine/threonine-protein kinase 24, sequence (Q9Y6E0 whole entry): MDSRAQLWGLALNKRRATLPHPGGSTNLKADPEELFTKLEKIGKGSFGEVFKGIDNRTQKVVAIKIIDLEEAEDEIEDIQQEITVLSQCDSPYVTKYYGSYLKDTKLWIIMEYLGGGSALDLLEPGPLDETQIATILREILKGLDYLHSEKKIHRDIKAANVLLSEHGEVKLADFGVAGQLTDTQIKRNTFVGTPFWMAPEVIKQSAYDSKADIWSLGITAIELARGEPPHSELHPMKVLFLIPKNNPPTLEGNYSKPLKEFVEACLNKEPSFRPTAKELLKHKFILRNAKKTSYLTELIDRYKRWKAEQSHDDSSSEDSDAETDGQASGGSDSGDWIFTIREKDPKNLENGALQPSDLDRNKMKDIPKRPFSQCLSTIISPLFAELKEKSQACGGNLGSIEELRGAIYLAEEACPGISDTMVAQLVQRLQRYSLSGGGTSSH

[8] = target: Mitogen-activated protein kinase kinase kinase kinase 2 (Homo sapiens, UniProt Q12851); experiment: Inhibition of MAP4K2
Misshapen-like kinase 1 = Misshapen-like kinase 1 (Homo sapiens, UniProt Q8N4C8); experiment: Inhibition of MINK1
[9] = target: Tyrosine-protein kinase CSK (Homo sapiens, UniProt P41240); experiment: Inhibition of CSK
Tyrosine-protein kinase CSK, sequence (P41240 whole entry): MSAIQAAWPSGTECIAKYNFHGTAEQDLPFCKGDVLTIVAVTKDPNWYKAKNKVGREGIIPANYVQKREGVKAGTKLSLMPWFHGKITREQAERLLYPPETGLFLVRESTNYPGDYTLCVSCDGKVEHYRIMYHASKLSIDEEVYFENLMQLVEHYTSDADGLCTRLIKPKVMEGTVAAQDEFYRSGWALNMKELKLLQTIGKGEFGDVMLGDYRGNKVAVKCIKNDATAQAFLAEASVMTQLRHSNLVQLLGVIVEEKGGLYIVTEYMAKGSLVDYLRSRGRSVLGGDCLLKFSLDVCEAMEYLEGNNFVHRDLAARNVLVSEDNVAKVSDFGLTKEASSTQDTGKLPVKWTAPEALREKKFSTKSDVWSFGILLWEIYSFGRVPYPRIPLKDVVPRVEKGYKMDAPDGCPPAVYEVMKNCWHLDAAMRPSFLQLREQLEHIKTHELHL

[10] = target: Protein-tyrosine kinase 2-beta (Homo sapiens, UniProt Q14289); experiment: Inhibition of PTK2B
Protein-tyrosine kinase 2-beta, sequence (Q14289 whole entry): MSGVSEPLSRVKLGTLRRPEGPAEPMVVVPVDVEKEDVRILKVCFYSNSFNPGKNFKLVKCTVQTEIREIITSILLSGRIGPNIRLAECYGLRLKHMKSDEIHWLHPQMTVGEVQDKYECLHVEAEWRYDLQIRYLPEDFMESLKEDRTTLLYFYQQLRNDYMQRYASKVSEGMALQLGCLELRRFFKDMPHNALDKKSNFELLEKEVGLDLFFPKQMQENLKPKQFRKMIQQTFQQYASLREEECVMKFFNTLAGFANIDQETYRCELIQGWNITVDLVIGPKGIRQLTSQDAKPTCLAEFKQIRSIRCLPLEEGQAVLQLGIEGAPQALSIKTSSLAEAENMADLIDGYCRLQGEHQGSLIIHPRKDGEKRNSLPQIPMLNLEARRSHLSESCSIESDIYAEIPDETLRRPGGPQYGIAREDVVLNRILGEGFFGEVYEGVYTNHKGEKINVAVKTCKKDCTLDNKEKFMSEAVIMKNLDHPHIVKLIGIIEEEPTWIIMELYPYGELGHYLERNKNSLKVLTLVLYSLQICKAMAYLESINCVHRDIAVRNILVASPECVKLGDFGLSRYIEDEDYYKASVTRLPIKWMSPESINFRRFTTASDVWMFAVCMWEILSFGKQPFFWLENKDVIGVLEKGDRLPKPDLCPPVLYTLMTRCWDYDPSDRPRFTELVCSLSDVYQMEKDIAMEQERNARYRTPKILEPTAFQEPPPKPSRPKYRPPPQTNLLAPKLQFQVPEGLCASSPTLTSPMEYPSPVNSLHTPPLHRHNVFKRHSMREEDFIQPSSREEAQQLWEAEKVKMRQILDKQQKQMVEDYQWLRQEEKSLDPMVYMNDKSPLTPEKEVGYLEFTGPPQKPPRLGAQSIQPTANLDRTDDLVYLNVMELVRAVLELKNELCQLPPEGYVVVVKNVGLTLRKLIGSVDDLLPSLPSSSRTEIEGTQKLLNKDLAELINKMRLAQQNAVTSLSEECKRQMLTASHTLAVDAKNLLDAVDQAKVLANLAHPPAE

[11] = target: Calcium/calmodulin-dependent protein kinase type II subunit gamma (Homo sapiens, UniProt Q13555); experiment: Inhibition of CAMK2G
[12] = target: Tyrosine-protein kinase Tec (Homo sapiens, UniProt P42680); experiment: Inhibition of TEC
[13] = target: Serine/threonine-protein kinase TBK1 (Homo sapiens, UniProt Q9UHD2); experiment: Inhibition of TBK1
[14] = target: Tyrosine-protein kinase Blk (Mus musculus, UniProt P16277); experiment: Inhibition of mouse BLK
Tyrosine-protein kinase Blk, sequence (P16277 whole entry): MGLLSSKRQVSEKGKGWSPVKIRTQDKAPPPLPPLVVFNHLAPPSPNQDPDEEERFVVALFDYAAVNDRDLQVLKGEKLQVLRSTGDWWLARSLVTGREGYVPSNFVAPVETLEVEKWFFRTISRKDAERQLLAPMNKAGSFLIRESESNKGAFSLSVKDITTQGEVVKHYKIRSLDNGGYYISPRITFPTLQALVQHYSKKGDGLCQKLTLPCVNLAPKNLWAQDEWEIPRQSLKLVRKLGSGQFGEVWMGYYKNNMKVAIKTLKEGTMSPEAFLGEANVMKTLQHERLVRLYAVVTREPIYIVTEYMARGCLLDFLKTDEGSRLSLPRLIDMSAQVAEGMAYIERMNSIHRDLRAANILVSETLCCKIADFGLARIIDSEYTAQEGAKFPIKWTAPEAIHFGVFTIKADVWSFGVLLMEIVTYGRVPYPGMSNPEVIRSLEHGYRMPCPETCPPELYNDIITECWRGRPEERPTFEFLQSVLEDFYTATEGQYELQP

[15] = target: Interleukin-1 receptor-associated kinase 4 (Homo sapiens, UniProt Q9NWZ3); experiment: Inhibition of IRAK4
Interleukin-1 receptor-associated kinase 4, sequence (Q9NWZ3 whole entry): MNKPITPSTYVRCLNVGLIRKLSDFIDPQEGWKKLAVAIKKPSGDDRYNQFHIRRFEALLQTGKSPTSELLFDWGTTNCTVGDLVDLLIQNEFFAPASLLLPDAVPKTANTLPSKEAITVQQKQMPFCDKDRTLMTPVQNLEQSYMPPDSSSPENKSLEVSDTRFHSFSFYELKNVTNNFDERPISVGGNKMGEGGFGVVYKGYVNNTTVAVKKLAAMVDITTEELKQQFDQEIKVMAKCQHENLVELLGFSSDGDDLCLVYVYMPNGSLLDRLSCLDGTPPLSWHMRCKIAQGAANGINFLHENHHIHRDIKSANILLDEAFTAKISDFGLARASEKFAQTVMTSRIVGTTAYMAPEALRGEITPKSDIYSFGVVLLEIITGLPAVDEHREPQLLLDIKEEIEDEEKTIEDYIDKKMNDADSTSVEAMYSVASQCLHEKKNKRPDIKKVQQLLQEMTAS

Angiopoietin-1 receptor [16] = target: T1, Angiopoietin-1 receptor (Homo sapiens, UniProt Q02763); experiment: Inhibition of TIE2
T1 sequence (Q02763 whole entry): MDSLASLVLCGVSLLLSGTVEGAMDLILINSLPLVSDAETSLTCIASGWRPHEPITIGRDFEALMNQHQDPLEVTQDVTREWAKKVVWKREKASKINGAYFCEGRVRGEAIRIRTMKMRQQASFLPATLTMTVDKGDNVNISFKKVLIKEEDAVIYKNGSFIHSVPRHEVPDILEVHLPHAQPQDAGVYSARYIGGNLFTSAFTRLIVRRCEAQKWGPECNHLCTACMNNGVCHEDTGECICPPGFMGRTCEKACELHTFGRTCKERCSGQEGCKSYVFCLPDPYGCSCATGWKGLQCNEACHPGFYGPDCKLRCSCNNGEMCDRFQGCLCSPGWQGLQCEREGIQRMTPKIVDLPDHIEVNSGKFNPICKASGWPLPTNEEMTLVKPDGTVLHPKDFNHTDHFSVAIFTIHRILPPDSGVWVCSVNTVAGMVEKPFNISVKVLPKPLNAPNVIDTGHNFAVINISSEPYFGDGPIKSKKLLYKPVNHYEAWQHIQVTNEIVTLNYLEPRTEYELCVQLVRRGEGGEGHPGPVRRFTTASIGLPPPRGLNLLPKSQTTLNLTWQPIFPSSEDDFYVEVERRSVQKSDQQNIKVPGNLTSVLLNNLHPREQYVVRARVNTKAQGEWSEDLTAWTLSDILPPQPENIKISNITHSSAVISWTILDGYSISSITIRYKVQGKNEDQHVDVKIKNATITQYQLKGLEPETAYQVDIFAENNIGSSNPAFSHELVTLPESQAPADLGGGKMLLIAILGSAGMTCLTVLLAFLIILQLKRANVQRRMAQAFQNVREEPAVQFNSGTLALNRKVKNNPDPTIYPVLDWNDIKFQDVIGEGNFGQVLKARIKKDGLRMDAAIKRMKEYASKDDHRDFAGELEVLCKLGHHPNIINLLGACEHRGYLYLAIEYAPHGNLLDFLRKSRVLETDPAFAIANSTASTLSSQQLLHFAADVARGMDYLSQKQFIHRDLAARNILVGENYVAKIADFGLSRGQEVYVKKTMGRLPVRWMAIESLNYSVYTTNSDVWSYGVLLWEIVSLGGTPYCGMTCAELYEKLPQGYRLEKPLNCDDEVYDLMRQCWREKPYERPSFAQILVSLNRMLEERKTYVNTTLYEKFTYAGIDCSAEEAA

[17] = target: T2, High affinity nerve growth factor receptor (Homo sapiens, UniProt P04629); experiment: Inhibition of TRKA
[18] = target: T3, BDNF/NT-3 growth factors receptor (Homo sapiens, UniProt Q16620); experiment: Inhibition of TRKB
[19] = target: Tyrosine-protein kinase TXK (Homo sapiens, UniProt P42681); experiment: Inhibition of TXK
[20] = target: Tyrosine-protein kinase receptor UFO (Homo sapiens) (UniProt P30530); experiment: Inhibition of AXL at 10 uM
[21] = target: Tyrosine-protein kinase Fes/Fps (Homo sapiens) (UniProt P07332); experiment: Inhibition of FES at 10 uM
[22] = target: T2, High affinity nerve growth factor receptor; experiment: Inhibition of TRKA at 10 uM
[23] = target: T3, BDNF/NT-3 growth factors receptor; experiment: Inhibition of TRKB at 10 uM
Angiopoietin-1 receptor [24] = target: T1, Angiopoietin-1 receptor; experiment: Inhibition of TIE2 at 10 uM
[25] = target: Interleukin-1 receptor-associated kinase 4 (Homo sapiens) (UniProt Q9NWZ3); experiment: Inhibition of IRAK4 at 10 uM

Tyrosine-protein kinase Fgr, sequence (P09769 whole entry): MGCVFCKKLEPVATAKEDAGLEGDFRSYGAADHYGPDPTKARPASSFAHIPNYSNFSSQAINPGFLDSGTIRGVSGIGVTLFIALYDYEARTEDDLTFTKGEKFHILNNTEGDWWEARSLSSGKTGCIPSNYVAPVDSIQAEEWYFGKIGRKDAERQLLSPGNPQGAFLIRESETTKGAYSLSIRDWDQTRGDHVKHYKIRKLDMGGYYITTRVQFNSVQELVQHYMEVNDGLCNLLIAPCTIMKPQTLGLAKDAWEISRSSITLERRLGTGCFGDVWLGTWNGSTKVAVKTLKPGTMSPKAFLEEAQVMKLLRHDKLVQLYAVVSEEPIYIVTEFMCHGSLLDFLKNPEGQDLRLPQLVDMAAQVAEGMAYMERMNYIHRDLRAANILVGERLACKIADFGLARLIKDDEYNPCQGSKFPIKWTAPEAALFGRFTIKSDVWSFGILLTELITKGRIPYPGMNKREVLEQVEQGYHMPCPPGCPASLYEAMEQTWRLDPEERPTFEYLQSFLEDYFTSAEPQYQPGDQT

## COc1cc(Nc2c(C#N)cnc3cc(OCCCN4CCN(C)CC4)c(OC)cc23)c(Cl)cc1Cl [BOSUTINIB]
[1]
  IC50: 0.3 nM
[2]
  IC50: 0.5 nM
[3]
  IC50: 1.1 nM
[4]
  IC50: 2.2 nM
[5]
  IC50: 2.5 nM
Activated CDC42 kinase 1
  IC50: 2.7 nM
[6]
  IC50: 3.2 nM
[7]
  IC50: 3.9 nM
[8]
  IC50: 9.9 nM
Misshapen-like kinase 1
  IC50: 22 nM
[9]
  IC50: 63 nM
[10]
  IC50: 134 nM
[11]
  IC50: 184 nM
[12]
  IC50: 282 nM
[13]
  IC50: 471 nM
[14]
  IC50: 7.3 nM
[15]
  IC50: 574 nM
Angiopoietin-1 receptor [16]
  IC50: 1190 nM
[17]
  IC50: 22 nM
[18]
  IC50: 27 nM
[19]
  IC50: 40 nM

## Cc1nc(Nc2ncc(C(=O)Nc3c(C)cccc3Cl)s2)cc(N2CCN(CCO)CC2)n1 [DASATINIB]
[14]
  IC50: 8 nM
[20]
  residual activity: 86%
[21]
  residual activity: 83%
[22]
  residual activity: 35%
[23]
  residual activity: 52%
Angiopoietin-1 receptor [24]
  residual activity: 48%
[25]
  residual activity: 84%
